Data published in paper PMC11813147, “Bioactivity assessment of peptides derived from salted jellyfish (Rhopilema hispidum) byproducts” (PLOS ONE, 2025).

Legend:
[1] = DPPH radical scavenging assay; type: biochemical; settings: supplement tables; for DPPH, mean±SD: n = 3
Description: The DPPH radical scavenging activity of the sample was assessed following a modified protocol based on a previous study. In each well of a 96-well plate, 10 μL of the sample was added, followed by 190 μL of 0.1 mM DPPH solution in 70% ethanol. The mixture was then incubated at room temperature in the dark for 30 min. After the incubation period, the absorbance of the mixture was measured at 517 nm. The DPPH radical scavenging activity was calculated using the following equation (1):
DPPHradicalscavengingactivity%=Acontrol–Asample/Acontrol×100 (1)
In this equation, Acontrol represents the absorbance of a control solution containing all reagents except for the test samples, while Asample is the absorbance of the mixture (the sample combined with 0.1 mM DPPH). To determine the Trolox equivalent antioxidant capacity (TEAC), a Trolox standard curve was utilized. The results were expressed as millimoles of Trolox equivalents per milligram of protein (mM TE/mg protein).

[2] = ABTS radical scavenging assay; type: biochemical; settings: supplement tables; for ABTS, mean±SD: n = 3
Description: The ABTS radical scavenging activity of the sample was measured using a method adapted from Mirzaei et al.. The ABTS radical was generated by mixing 7 mM ABTS with 2.45 mM potassium persulfate in a 1:1 ratio and incubating the mixture in the dark at room temperature for 12 to 16 h. The resulting solution was then diluted to achieve an absorbance of 0.74 ± 0.03 at 734 nm, using deionized water for adjustments. Next, 10 μL of the sample was added to 190 μL of the ABTS solution. The mixture was incubated in the dark for 7 min, after which the absorbance was measured at 734 nm. The ABTS radical scavenging activity (%) was calculated using the following equation (2):
ABTSradicalscavengingactivity%=Acontrol–Asample/Acontrol×100 (2)
In this equation, Acontrol refers to the absorbance of the control solution (which contains all reagents except the test samples), while Asample refers to the absorbance of the mixture containing the sample and the ABTS solution. To determine the Trolox equivalent antioxidant capacity (TEAC), a Trolox standard curve was used, and the results were expressed as millimoles of Trolox equivalents per milligram of protein (mM TE/mg protein).

[3] = Ferric reducing antioxidant power (FRAP) assay; type: biochemical
Description: The FRAP assay was conducted following the method outlined by Rumpf et al.. The FRAP solution was prepared by mixing 300 mM acetate buffer (pH 3.6), 10 mM TPTZ (2,4,6-Tris(2-pyridyl)-s-triazine) in 40 mM hydrochloric acid, and 20 mM FeCl3 in a ratio of 10:1:1. In a 96-well plate, 10 μL of the sample was combined with 190 μL of the FRAP solution and incubated in the dark for 15 min. The absorbance of the mixture was then measured at 593 nm. FeSO4 was used to create the standard curve, and the results were expressed as millimoles of FeSO4 equivalent per milligram of protein (mM FeSO4/mg protein).

[4] = tested on: RAW 264.7; assay: Anti-inflammation assay: released NO in LPS-stimulated RAW 264.7 (Griess); type: cell-based, Murine; settings: then 1 µg/mL LPS 24 h; for Released NO: peptide 10 µg/mL 1 h; for Released NO, mean±SD: peptide 10 µg/mL pre-treatment 1 h, Griess reagent, n = 3
Description: (§1) Murine macrophage cells (RAW 264.7; ATCC TIB-71™) were cultured in Dulbecco’s Modified Eagle’s Medium (DMEM) that was supplemented with 10% heat-inactivated fetal bovine serum (FBS) and 1% antibiotic solution. Colorectal adenocarcinoma cells (CaCo-2; ATCC HTB 37™) were cultured in Eagle’s Minimum Essential Medium (EMEM), also supplemented with 10% heat-inactivated FBS and 1% antibiotic solution. Both cell types were maintained in a humidified incubator with 5% CO2. The cell culture medium was refreshed every three days.
The anti-inflammation assay was conducted following the method described by Barzkar et al. with slight modifications. RAW 264.7 (1 x 10^5 cells) was seeded into a 96-well plate to allow for cell attachment. After 24 h, the cells were pre-treated with fresh medium containing peptide samples at a concentration of 10 µg/mL for 1 h. Subsequently, the treated cells were stimulated with 1 µg/mL lipopolysaccharide (LPS) for an additional 24 h. Unstimulated cells were included as a negative control. At the end of the treatment period, the conditioned medium was collected for the determination of released nitric oxide (NO). Griess’s reagent (Promega) was utilized to measure the NO concentration, following the manufacturer’s instructions. A NO calibration curve was generated to quantify the released NO in the conditioned medium.

[5] = tested on: RAW 264.7; assay: Cytotoxicity assessment (MTT); type: cell-based, Murine; settings: peptide 10 µg/mL, 72 h; for Cell viability, mean±SD: relative to untreated cells, n = 3, SD
Description: as §1
Cytotoxicity assessment was performed following the method described by Yang et al., with slight modifications. RAW 264.7 was seeded with 1 x 10^5 cells in a 96-well plate with an appropriate cell culture medium. After allowing the cells to attach, the medium was replaced with a fresh cell culture medium containing the peptide samples at a concentration of 10 µg/mL. The treated cells were incubated for an additional 72 h. At the designated time, fresh medium was added, which included 3-(4,5-dimethylthiazol-2-yl)-2,5-diphenyltetrazolium bromide (MTT) at a concentration of 0.5 mg/mL. After 3 h, formazan crystals were observed. The medium was then removed, and the crystals were dissolved in 100% dimethyl sulfoxide (DMSO). A microplate reader (Synergy HTX; Biotek, Multi-Mode Reader, Winooski, VT, USA) was utilized to measure the absorbance at 570 nm (measurement wavelength) and 630 nm (reference wavelength). The percentage of cell viability was calculated relative to untreated cells using the following equation (5):
Cellviability%=ODtreatment–ODblank/ODuntreated–ODblank×100 (5)
Where ODtreatment is the absorbance of the treated sample, ODuntreated is the absorbance of the untreated sample, and ODblank is the absorbance from wells without treated and untreated samples.

[6] = 10 µL sample + 190 µL FRAP solution, 15 min dark, 593 nm, FeSO4 standard curve, mean ± SD, n = 3, SD

DAENKENVEE [P18, synthesized peptide identified from jellyfish fraction PUR20C]
DPPH, mean±SD [1]: 6.03±0.79^D TE/mg protein | DPPH ([1]; replicate 1): 5.23 TE/mg protein | DPPH ([1]; replicate 2): 6.03 TE/mg protein | DPPH ([1]; replicate 3): 6.82 TE/mg protein | ABTS, mean±SD [2]: 6.05 TE/mg protein | ABTS ([2]; replicate 1): 5.71 TE/mg protein | ABTS ([2]; replicate 2): 5.51 TE/mg protein | ABTS ([2]; replicate 3): 6.91 TE/mg protein | FRAP [3, 6]: 4.40±0.43^H mM FeSO4/mg protein | FRAP ([3]; supplement tables, replicate 1): 4.89 mM FeSO4/mg protein | FRAP ([3]; supplement tables, replicate 2): 4.05 mM FeSO4/mg protein | FRAP ([3]; supplement tables, replicate 3): 4.26 mM FeSO4/mg protein | Released NO ([4]; replicate 1): 34.13 µM | Released NO ([4]; replicate 2): 31.37 µM | Released NO ([4]; replicate 3): 31.03 µM | Released NO, mean±SD [4]: 32.18±1.70^F µM | Cell viability, mean±SD [5]: 89.16% | Cell viability ([5]; replicate 1): 86.29% | Cell viability ([5]; replicate 2): 87.17% | Cell viability ([5]; replicate 3): 94.02%

EIDKLPPESRP [P7, synthesized peptide identified from jellyfish fraction PUR20C]
DPPH, mean±SD [1]: 1.96 TE/mg protein | DPPH ([1]; replicate 1): 1.52 TE/mg protein | DPPH ([1]; replicate 2): 1.78 TE/mg protein | DPPH ([1]; replicate 3): 2.58 TE/mg protein | ABTS, mean±SD [2]: 1.64 TE/mg protein | ABTS ([2]; replicate 1): 1.71 TE/mg protein | ABTS ([2]; replicate 2): 1.71 TE/mg protein | ABTS ([2]; replicate 3): 1.50 TE/mg protein | FRAP [3, 6]: 12.40±1.36^C mM FeSO4/mg protein | FRAP ([3]; supplement tables, replicate 1): 11.00 mM FeSO4/mg protein | FRAP ([3]; supplement tables, replicate 2): 13.73 mM FeSO4/mg protein | FRAP ([3]; supplement tables, replicate 3): 12.47 mM FeSO4/mg protein | Released NO ([4]; replicate 1): 35.51 µM | Released NO ([4]; replicate 2): 37.58 µM | Released NO ([4]; replicate 3): 33.79 µM | Released NO, mean±SD [4]: 35.63 ± 1.89 µM | Cell viability, mean±SD [5]: 81.60% | Cell viability ([5]; replicate 1): 81.72% | Cell viability ([5]; replicate 2): 81.89% | Cell viability ([5]; replicate 3): 81.19%

EQIYPMGEGDEL [P4, synthesized peptide identified from jellyfish fraction PUR20C]
DPPH, mean±SD [1]: 3.81±0.30^E TE/mg protein | DPPH ([1]; replicate 1): 3.64 TE/mg protein | DPPH ([1]; replicate 2): 3.64 TE/mg protein | DPPH ([1]; replicate 3): 4.17 TE/mg protein | ABTS, mean±SD [2]: 103.41±1.20^F TE/mg protein | ABTS ([2]; replicate 1): 103.28 TE/mg protein | ABTS ([2]; replicate 2): 102.27 TE/mg protein | ABTS ([2]; replicate 3): 104.68 TE/mg protein | FRAP [3, 6]: 8.40 mM FeSO4/mg protein | FRAP ([3]; supplement tables, replicate 1): 8.89 mM FeSO4/mg protein | FRAP ([3]; supplement tables, replicate 2): 8.47 mM FeSO4/mg protein | FRAP ([3]; supplement tables, replicate 3): 7.84 mM FeSO4/mg protein | Released NO ([4]; replicate 1): 38.96 µM | Released NO ([4]; replicate 2): 35.86 µM | Released NO ([4]; replicate 3): 36.55 µM | Released NO, mean±SD [4]: 37.12 µM | Cell viability, mean±SD [5]: 82.77±0.92% | Cell viability ([5]; replicate 1): 83.12% | Cell viability ([5]; replicate 2): 83.47% | Cell viability ([5]; replicate 3): 81.72%
